Here are results for eight molecules from paper PMC6600388 (2019).

The assay has as its system human red blood cells. To be noted: red cells of human.

Like-named read-outs stand apart in the source and are kept apart here. Residues, ends and D or L forms follow the SMILES beside them. Some results are limits rather than exact numbers.

A word on the IC50: it is the concentration that gives 50% inhibition. A high value points to lower potency. In the case of `N=C(N)NCCC[C@H](NC(=O)[C@H](CCCNC(=N)N)NC(=O)[C@H](CCC(N)=O)NC(=O)[C@H](CCCNC(=N)N)NC(=O)[C@H](CCCNC(=N)N)NC(=O)[C@H](CCCCN)NC(=O)[C@H](CCCCN)NC(=O)[C@H](CCCNC(=N)N)NC(=O)CNC(=O)[C@H](Cc1ccc(O)cc1)NC(=O)[C@@H](N)CS)C(N)=O` [Peptide 1, reference compound] (H-CYGRKKRRQRR-NH2), the IC50 by setting is: (pH 5.5) over 20 µM; (pH 7.4) over 20 µM.
In the case of `CC[C@H](C)[C@H](NC(=O)[C@H](CCCCN)NC(=O)[C@@H](NC(=O)[C@H](CCC(N)=O)NC(=O)[C@H](CCCNC(=N)N)NC(=O)[C@@H](N)CS)[C@@H](C)CC)C(=O)N[C@@H](Cc1c[nH]c2ccccc12)C(=O)N[C@@H](Cc1ccccc1)C(=O)N[C@@H](CCC(N)=O)C(=O)N[C@@H](CC(N)=O)C(=O)N[C@@H](CCCNC(=N)N)C(=O)N[C@@H](CCCNC(=N)N)C(=O)N[C@@H](CCSC)C(=O)N[C@@H](CCCCN)C(=O)N[C@@H](Cc1c[nH]c2ccccc12)C(=O)N[C@@H](CCCCN)C(=O)N[C@@H](CCCCN)C(N)=O` [Peptide 2, reference compound], the IC50 by setting is: (pH 5.5) over 20 µM; (pH 7.4) over 20 µM.
For `CC[C@H](C)[C@H](NC(=O)[C@H](C)NC(=O)[C@H](CCC(=O)O)NC(=O)[C@H](Cc1ccccc1)NC(=O)[C@H](CC(C)C)NC(=O)CNC(=O)[C@@H](N)CS)C(=O)N[C@@H](C)C(=O)NCC(=O)N[C@@H](Cc1ccccc1)C(=O)N[C@H](C(=O)N[C@@H](CCC(=O)O)C(=O)N[C@@H](CC(N)=O)C(=O)NCC(=O)N[C@@H](Cc1c[nH]c2ccccc12)C(=O)N[C@@H](CCC(=O)O)C(=O)NCC(=O)N[C@@H](CCSC)C(=O)N[C@H](C(=O)N[C@@H](CC(=O)O)C(=O)NCC(=O)N[C@@H](Cc1c[nH]c2ccccc12)C(=O)N[C@@H](Cc1ccc(O)cc1)C(=O)NCC(N)=O)[C@@H](C)CC)[C@@H](C)CC` [Peptide 3, reference compound] (H-CGLFEAIAGFIENGWEGMIDGWYG-NH2), the IC50 was over 20 µM (pH 5.5) and over 20 µM (pH 7.4).
As to `CC[C@H](C)[C@H](NC(=O)[C@H](C)NC(=O)[C@H](CCC(=O)O)NC(=O)[C@H](Cc1ccccc1)NC(=O)[C@H](CC(C)C)NC(=O)CNC(=O)[C@@H](N)CS)C(=O)N[C@@H](CCC(=O)O)C(=O)NCC(=O)N[C@@H](Cc1ccccc1)C(=O)N[C@H](C(=O)N[C@@H](CCC(=O)O)C(=O)N[C@@H](CC(N)=O)C(=O)NCC(=O)N[C@@H](Cc1c[nH]c2ccccc12)C(=O)N[C@@H](CCC(=O)O)C(=O)NCC(=O)N[C@@H](CCSC)C(=O)N[C@H](C(=O)N[C@@H](CC(=O)O)C(=O)NCC(=O)N[C@@H](Cc1c[nH]c2ccccc12)C(=O)N[C@@H](Cc1ccc(O)cc1)C(=O)NCC(N)=O)[C@@H](C)CC)[C@@H](C)CC` [Peptide 4, reference compound], the IC50 runs as follows: (pH 5.5) 16 µM; (pH 7.4) over 20 µM.
Taken in the same sequence, the figures for `CC[C@H](C)[C@H](NC(=O)[C@H](C)NC(=O)[C@H](Cc1c[nH]cn1)NC(=O)[C@H](Cc1ccccc1)NC(=O)[C@H](CC(C)C)NC(=O)CNC(=O)[C@@H](N)CS)C(=O)N[C@@H](C)C(=O)N[C@@H](Cc1c[nH]cn1)C(=O)N[C@@H](Cc1ccccc1)C(=O)N[C@H](C(=O)N[C@@H](Cc1c[nH]cn1)C(=O)NCC(=O)NCC(=O)N[C@@H](Cc1c[nH]c2ccccc12)C(=O)N[C@@H](Cc1c[nH]cn1)C(=O)NCC(=O)N[C@@H](CC(C)C)C(=O)N[C@H](C(=O)N[C@@H](Cc1c[nH]cn1)C(=O)NCC(=O)N[C@@H](Cc1c[nH]c2ccccc12)C(=O)N[C@@H](Cc1ccc(O)cc1)C(=O)NCC(=O)N[C@@H](Cc1ccc(O)cc1)C(=O)NCC(=O)N[C@@H](CCCNC(=N)N)C(=O)N[C@@H](CCCCN)C(=O)N[C@@H](CCCCN)C(=O)N[C@@H](CCCNC(=N)N)C(=O)N[C@@H](CCCNC(=N)N)C(=O)N[C@@H](CCC(N)=O)C(=O)N[C@@H](CCCNC(=N)N)C(=O)N[C@@H](CCCNC(=N)N)C(N)=O)[C@@H](C)CC)[C@@H](C)CC` [Peptide 7] (H-CGLFHAIAHFIHGGWHGLIHGWYGYGRKKRRQRR-NH2) were 5.9 µM and 0.3 µM.
The like results for `CC[C@H](C)[C@H](NC(=O)[C@H](C)NC(=O)[C@H](CCC(=O)O)NC(=O)[C@H](Cc1ccccc1)NC(=O)[C@H](CC(C)C)NC(=O)CNC(=O)[C@@H](N)CS)C(=O)N[C@@H](CCC(=O)O)C(=O)NCC(=O)N[C@@H](Cc1ccccc1)C(=O)N[C@H](C(=O)N[C@@H](CCC(=O)O)C(=O)N[C@@H](CC(N)=O)C(=O)NCC(=O)N[C@@H](Cc1c[nH]c2ccccc12)C(=O)N[C@@H](CCC(=O)O)C(=O)NCC(=O)N[C@@H](CC(C)C)C(=O)N[C@H](C(=O)N[C@@H](CC(=O)O)C(=O)NCC(=O)N[C@@H](Cc1c[nH]c2ccccc12)C(=O)N[C@@H](Cc1ccc(O)cc1)C(=O)NCC(=O)N[C@@H](Cc1ccc(O)cc1)C(=O)NCC(=O)N[C@@H](CCCNC(=N)N)C(=O)N[C@@H](CCCCN)C(=O)N[C@@H](CCCCN)C(=O)N[C@@H](CCCNC(=N)N)C(=O)N[C@@H](CCCNC(=N)N)C(=O)N[C@@H](CCC(N)=O)C(=O)N[C@@H](CCCNC(=N)N)C(=O)N[C@@H](CCCNC(=N)N)C(N)=O)[C@@H](C)CC)[C@@H](C)CC` [Peptide 28g] were, in that order, 0.71 µM and 2.9 µM.
The like results for `CC[C@H](C)[C@H](NC(=O)[C@H](C)NC(=O)[C@H](CCC(=O)O)NC(=O)[C@H](Cc1ccccc1)NC(=O)[C@H](CC(C)C)NC(=O)CNC(=O)[C@@H](N)CS)C(=O)N[C@@H](CCC(=O)O)C(=O)NCC(=O)N[C@@H](Cc1ccccc1)C(=O)N[C@H](C(=O)N[C@@H](CCC(=O)O)C(=O)N[C@@H](CC(N)=O)C(=O)NCC(=O)N[C@@H](Cc1c[nH]c2ccccc12)C(=O)N[C@@H](CCC(=O)O)C(=O)NCC(=O)N[C@@H](CCSC)C(=O)N[C@H](C(=O)N[C@@H](CC(=O)O)C(=O)NCC(=O)NCC(=O)NCC(=O)NCC(=O)N[C@@H](Cc1ccc(O)cc1)C(=O)NCC(=O)N[C@@H](CCCNC(=N)N)C(=O)N[C@@H](CCCCN)C(=O)N[C@@H](CCCCN)C(=O)N[C@@H](CCCNC(=N)N)C(=O)N[C@@H](CCCNC(=N)N)C(=O)N[C@@H](CCC(N)=O)C(=O)N[C@@H](CCCNC(=N)N)C(=O)N[C@@H](CCCNC(=N)N)C(N)=O)[C@@H](C)CC)[C@@H](C)CC` [Peptide 32b] (H-CGLFEAIEGFIENGWEGMIDGGGGYGRKKRRQRR-NH2) were, in that order, over 10 µM and over 10 µM.
Regarding `CC[C@H](C)[C@H](NC(=O)[C@H](C)NC(=O)[C@H](CCC(=O)O)NC(=O)[C@H](C)NC(=O)[C@H](CC(C)C)NC(=O)CNC(=O)[C@@H](N)CS)C(=O)N[C@@H](CCC(=O)O)C(=O)NCC(=O)N[C@@H](Cc1ccccc1)C(=O)N[C@H](C(=O)N[C@@H](CCC(=O)O)C(=O)N[C@@H](CC(N)=O)C(=O)NCC(=O)N[C@@H](CC(C)C)C(=O)N[C@@H](CCCCN)C(=O)NCC(=O)N[C@@H](CC(C)C)C(=O)N[C@H](C(=O)N[C@@H](CC(=O)O)C(=O)N[C@@H](Cc1c[nH]c2ccccc12)C(=O)N[C@@H](Cc1c[nH]c2ccccc12)C(=O)N[C@@H](Cc1ccc(O)cc1)C(=O)NCC(=O)N[C@@H](Cc1ccc(O)cc1)C(=O)NCC(=O)N[C@@H](CCCNC(=N)N)C(=O)N[C@@H](CCCCN)C(=O)N[C@@H](CCCCN)C(=O)N[C@@H](CCCNC(=N)N)C(=O)N[C@@H](CCCNC(=N)N)C(=O)N[C@@H](CCC(N)=O)C(=O)N[C@@H](CCCNC(=N)N)C(=O)N[C@@H](CCCNC(=N)N)C(N)=O)[C@@H](C)CC)[C@@H](C)CC` [Peptide 58] (H-CGLAEAIEGFIENGLKGLIDWWYGYGRKKRRQRR-NH2), the half-inhibitory concentration (IC50) was 0.06 µM (pH 5.5) and 2 µM (pH 7.4).
